{
  "source": "BindingDB's records for PubMed 1352553",
  "about": "(University of North Carolina, 1992)",
  "key": {"Adenosine kinase": {"target": "Adenosine kinase (Rattus norvegicus, UniProt Q64640)", "sequence (Q64640 whole entry)": "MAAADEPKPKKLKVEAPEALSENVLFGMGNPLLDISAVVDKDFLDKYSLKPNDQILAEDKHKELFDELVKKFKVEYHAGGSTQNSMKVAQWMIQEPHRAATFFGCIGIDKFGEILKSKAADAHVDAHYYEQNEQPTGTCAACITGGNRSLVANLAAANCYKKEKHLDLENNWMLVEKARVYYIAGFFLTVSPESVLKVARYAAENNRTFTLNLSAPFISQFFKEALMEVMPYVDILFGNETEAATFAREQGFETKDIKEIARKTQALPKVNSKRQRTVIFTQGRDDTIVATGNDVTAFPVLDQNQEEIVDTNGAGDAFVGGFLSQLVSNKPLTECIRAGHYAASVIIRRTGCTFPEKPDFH"}, "[1]": {"target": "5-hydroxytryptamine receptor 2A (Rattus norvegicus, UniProt P14842)"}, "[2]": {"target": "Gamma-aminobutyric acid (GABA) B receptor 1 (Rattus norvegicus, UniProt Q6MFX8)"}, "[3]": {"target": "Alpha-1A adrenergic receptor (Rattus norvegicus, UniProt P43140)"}, "5'-nucleotidase": {"target": "5'-nucleotidase (Rattus norvegicus, UniProt P21588)"}, "[4]": {"target": "Gamma-aminobutyric acid receptor subunit alpha-1 (Rattus norvegicus, UniProt P62813)", "sequence (P62813 whole entry)": "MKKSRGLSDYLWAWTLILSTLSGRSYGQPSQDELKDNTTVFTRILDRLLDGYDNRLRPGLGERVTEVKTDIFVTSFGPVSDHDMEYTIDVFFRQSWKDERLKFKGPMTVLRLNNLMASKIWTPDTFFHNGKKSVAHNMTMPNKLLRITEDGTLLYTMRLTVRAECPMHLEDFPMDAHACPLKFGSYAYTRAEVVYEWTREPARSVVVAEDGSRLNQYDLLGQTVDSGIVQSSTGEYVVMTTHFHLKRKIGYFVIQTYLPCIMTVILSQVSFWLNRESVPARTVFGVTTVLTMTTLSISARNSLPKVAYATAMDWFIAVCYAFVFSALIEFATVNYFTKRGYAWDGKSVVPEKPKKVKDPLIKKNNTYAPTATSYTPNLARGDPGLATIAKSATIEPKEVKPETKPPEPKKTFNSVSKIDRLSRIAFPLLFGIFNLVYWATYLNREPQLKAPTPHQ"}, "Adenylate cyclase type 3": {"target": "Adenylate cyclase type 3 (Rattus norvegicus, UniProt P21932)"}, "[5]": {"target": "Alpha-2C adrenergic receptor (Rattus norvegicus, UniProt P22086)", "sequence (P22086 whole entry)": "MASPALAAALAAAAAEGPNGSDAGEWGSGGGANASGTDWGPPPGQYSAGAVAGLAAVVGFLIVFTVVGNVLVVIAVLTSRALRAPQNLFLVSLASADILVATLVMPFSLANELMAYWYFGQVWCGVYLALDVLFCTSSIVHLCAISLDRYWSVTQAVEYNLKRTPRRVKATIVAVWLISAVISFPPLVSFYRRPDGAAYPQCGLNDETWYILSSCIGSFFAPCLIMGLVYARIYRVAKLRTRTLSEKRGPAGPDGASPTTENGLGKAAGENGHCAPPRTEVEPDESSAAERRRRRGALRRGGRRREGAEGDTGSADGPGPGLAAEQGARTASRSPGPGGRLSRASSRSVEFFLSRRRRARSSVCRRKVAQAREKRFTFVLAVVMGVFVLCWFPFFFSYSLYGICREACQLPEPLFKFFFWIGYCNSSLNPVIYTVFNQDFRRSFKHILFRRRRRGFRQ"}, "Natriuretic peptides A": {"target": "Natriuretic peptides A (Rattus norvegicus, UniProt P01161)"}, "Angiotensinogen": {"target": "Angiotensinogen (Rattus norvegicus, UniProt P01015)", "sequence (P01015 whole entry)": "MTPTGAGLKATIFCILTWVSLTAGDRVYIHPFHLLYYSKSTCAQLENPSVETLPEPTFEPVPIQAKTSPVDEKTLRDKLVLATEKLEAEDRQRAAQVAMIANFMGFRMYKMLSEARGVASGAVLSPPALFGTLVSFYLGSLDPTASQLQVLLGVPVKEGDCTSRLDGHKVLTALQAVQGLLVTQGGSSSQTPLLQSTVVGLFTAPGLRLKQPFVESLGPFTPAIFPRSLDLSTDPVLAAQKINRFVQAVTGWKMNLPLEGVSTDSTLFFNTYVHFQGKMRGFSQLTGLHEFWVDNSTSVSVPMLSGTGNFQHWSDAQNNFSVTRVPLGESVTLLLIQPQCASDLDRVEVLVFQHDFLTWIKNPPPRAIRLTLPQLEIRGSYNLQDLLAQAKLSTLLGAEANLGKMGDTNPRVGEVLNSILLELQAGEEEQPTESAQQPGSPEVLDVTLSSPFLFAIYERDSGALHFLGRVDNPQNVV"}, "[6]": {"target": "Arginine vasopressin-induced protein 1 (Rattus norvegicus, UniProt Q8VDA6)", "sequence (Q8VDA6 whole entry)": "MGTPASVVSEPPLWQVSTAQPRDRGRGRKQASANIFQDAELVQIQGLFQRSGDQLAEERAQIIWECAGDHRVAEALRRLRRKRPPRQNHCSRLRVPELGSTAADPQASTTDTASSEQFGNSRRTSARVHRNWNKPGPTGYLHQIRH"}, "[7]": {"target": "Bombesin receptor subtype-3 (Rattus norvegicus, UniProt Q8K418)"}, "[8]": {"target": "Voltage-dependent L-type calcium channel subunit alpha-1C (Rattus norvegicus, UniProt P22002)"}, "[9]": {"target": "Chloride channel protein 1 (Rattus norvegicus, UniProt P35524)", "sequence (P35524 whole entry)": "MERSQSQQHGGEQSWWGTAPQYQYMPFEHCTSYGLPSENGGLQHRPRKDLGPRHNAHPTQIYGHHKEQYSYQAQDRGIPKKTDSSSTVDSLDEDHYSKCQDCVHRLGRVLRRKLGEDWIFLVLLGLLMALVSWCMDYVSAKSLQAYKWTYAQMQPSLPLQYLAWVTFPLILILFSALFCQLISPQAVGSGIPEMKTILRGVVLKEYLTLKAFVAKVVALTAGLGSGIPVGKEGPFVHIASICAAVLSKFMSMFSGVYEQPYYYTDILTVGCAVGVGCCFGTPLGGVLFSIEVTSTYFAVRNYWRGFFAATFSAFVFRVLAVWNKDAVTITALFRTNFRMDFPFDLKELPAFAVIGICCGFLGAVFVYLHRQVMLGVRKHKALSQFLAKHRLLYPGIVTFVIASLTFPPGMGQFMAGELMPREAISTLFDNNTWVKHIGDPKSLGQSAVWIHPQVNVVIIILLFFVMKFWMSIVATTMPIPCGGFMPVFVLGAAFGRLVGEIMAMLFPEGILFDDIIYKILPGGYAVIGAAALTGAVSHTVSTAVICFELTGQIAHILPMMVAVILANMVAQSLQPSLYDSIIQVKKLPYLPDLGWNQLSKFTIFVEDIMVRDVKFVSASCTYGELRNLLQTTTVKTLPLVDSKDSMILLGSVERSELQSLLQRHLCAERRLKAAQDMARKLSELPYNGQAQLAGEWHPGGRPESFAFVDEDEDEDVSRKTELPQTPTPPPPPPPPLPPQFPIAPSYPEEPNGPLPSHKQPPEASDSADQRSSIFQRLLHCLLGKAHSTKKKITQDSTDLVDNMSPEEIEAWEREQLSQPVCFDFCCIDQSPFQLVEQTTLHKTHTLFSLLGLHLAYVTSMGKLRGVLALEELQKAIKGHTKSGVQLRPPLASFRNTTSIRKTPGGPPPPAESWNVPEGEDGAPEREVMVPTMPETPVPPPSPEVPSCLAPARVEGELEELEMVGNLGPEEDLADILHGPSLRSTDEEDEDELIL"}, "[10]": {"target": "Cholecystokinin receptor type A (Rattus norvegicus, UniProt P30551)", "sequence (P30551 whole entry)": "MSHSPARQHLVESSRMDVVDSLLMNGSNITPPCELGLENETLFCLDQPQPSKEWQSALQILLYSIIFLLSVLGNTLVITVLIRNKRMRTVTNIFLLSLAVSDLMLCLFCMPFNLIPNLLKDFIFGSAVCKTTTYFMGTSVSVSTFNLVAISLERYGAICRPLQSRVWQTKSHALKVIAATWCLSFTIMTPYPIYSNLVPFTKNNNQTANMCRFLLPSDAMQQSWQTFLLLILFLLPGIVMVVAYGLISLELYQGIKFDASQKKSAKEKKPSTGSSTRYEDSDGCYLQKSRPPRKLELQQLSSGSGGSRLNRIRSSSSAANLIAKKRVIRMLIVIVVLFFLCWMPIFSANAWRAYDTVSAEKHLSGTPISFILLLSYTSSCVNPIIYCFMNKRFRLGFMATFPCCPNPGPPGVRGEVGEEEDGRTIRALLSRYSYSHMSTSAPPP"}, "[11]": {"target": "Pro-epidermal growth factor (Rattus norvegicus, UniProt P07522)"}, "Glutamate receptor 3": {"target": "Glutamate receptor 3 (Rattus norvegicus, UniProt P19492)"}, "[12]": {"target": "Glutamate receptor ionotropic, kainate 1 (Rattus norvegicus, UniProt P22756)"}, "[13]": {"target": "Glutamate receptor ionotropic, NMDA 1 (Rattus norvegicus, UniProt P35439)"}, "[14]": {"target": "Glycine amidinotransferase, mitochondrial (Rattus norvegicus, UniProt P50442)"}, "[15]": {"target": "Phosphatidylinositol 3,4,5-trisphosphate 5-phosphatase 2 (Rattus norvegicus, UniProt Q9WVR3)", "sequence (Q9WVR3 whole entry)": "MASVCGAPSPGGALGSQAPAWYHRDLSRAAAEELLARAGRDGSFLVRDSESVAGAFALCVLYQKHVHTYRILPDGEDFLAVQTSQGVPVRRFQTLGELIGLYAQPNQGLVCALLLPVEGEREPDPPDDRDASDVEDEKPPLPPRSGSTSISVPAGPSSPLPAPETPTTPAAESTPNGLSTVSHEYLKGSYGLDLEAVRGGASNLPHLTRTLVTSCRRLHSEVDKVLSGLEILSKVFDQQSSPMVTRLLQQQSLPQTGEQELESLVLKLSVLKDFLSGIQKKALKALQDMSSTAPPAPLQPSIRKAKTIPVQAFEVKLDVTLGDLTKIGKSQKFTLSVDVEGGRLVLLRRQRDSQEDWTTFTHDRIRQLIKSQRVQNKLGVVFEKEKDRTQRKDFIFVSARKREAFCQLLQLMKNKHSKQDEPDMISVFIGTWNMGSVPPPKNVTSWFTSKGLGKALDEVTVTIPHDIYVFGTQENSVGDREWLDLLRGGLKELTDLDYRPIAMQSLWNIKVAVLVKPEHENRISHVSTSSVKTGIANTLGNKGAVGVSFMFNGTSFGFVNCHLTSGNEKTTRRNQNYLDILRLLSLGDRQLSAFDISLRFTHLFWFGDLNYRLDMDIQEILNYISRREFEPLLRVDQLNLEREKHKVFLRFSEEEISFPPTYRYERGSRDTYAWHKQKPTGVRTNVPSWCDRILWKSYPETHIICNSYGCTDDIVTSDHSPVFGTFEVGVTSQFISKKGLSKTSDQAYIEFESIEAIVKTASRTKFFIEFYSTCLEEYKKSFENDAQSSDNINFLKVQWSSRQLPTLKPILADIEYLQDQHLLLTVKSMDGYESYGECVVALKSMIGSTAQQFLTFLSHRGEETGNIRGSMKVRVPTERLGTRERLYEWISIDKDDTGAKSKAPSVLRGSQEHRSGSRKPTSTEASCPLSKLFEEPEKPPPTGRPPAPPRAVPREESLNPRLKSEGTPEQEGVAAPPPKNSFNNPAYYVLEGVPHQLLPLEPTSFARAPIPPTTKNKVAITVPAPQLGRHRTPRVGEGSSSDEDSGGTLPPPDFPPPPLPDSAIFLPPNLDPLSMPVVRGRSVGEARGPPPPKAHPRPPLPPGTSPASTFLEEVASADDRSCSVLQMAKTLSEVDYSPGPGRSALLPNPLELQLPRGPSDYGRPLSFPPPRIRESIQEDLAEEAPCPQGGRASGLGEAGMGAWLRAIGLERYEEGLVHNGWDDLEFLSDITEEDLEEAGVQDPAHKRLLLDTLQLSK"}, "Interleukin-18": {"target": "Interleukin-18 (Rattus norvegicus, UniProt P97636)"}, "Beta-nerve growth factor": {"target": "Beta-nerve growth factor (Rattus norvegicus, UniProt P25427)", "sequence (P25427 122-241 limits assumed)": "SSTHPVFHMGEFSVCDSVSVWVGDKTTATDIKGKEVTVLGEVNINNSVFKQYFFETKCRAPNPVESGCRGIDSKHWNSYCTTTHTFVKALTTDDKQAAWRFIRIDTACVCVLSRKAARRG"}, "[16]": {"target": "Norepinephrine transporter (Rattus norvegicus, UniProt Q9JIA2)"}, "[17]": {"target": "Sigma non-opioid intracellular receptor 1 (Rattus norvegicus, UniProt Q9R0C9)", "sequence (Q9R0C9 whole entry)": "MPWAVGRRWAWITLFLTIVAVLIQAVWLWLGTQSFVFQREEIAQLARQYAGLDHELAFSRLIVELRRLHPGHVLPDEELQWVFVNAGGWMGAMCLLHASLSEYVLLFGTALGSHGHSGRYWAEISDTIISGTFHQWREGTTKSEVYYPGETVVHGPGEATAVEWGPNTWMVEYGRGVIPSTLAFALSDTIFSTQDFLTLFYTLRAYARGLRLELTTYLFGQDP"}, "[18]": {"target": "Potassium voltage-gated channel subfamily H member 8 (Rattus norvegicus, UniProt Q9QWS8)"}, "Somatostatin": {"target": "Somatostatin (Rattus norvegicus, UniProt P60042)"}, "Protachykinin-1": {"target": "Protachykinin-1 (Rattus norvegicus, UniProt P06767)"}, "VIP peptides": {"target": "VIP peptides (Rattus norvegicus, UniProt P01283)", "sequence (P01283 125-152 limits assumed)": "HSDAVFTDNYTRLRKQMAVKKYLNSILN"}, "[19]": {"target": "Beta-2 adrenergic receptor (Rattus norvegicus, UniProt P10608)"}},
  "note": "“And” between values parts separate entries of the source, which are not always exact repeats. Equal entries are not always repeated.",
  "data": [
    {"compound": "Oc1cc2c(cc1O)[C@@H]1c3ccccc3CN[C@@H]1CC2", "note": "[(+/-)-trans-10,11-dihydroxy-5,6,6a,7,8,12b-hexahydrobenzo[a]phenanthridine]", "values": [
      {"measurement": "Ki", "setting": "Adenosine kinase", "result": "> 10", "unit": "µM"},
      {"measurement": "Ki", "setting": "[1]", "result": "> 10", "unit": "µM"},
      {"measurement": "Ki", "setting": "[2]", "result": "> 10", "unit": "µM"},
      {"measurement": "Ki", "setting": "[3]", "result": "> 10", "unit": "µM"},
      {"measurement": "Ki", "setting": "5'-nucleotidase", "result": "> 10", "unit": "µM"},
      {"measurement": "Ki", "setting": "[4]", "result": "> 10", "unit": "µM"},
      {"measurement": "Ki", "setting": "Adenylate cyclase type 3", "result": "> 10", "unit": "µM"},
      {"measurement": "Ki", "setting": "[5]", "result": "0.23 µM and 1 µM"},
      {"measurement": "Ki", "setting": "Natriuretic peptides A", "result": "> 10", "unit": "µM"},
      {"measurement": "Ki", "setting": "Angiotensinogen", "result": "> 10", "unit": "µM"},
      {"measurement": "Ki", "setting": "[6]", "result": "> 10", "unit": "µM"},
      {"measurement": "Ki", "setting": "[7]", "result": "> 10", "unit": "µM"},
      {"measurement": "Ki", "setting": "[8]", "result": "> 10", "unit": "µM"},
      {"measurement": "Ki", "setting": "[9]", "result": "> 10", "unit": "µM"},
      {"measurement": "Ki", "setting": "[10]", "result": "> 10", "unit": "µM"},
      {"measurement": "Ki", "setting": "[11]", "result": "> 10", "unit": "µM"},
      {"measurement": "Ki", "setting": "Glutamate receptor 3", "result": "> 10", "unit": "µM"},
      {"measurement": "Ki", "setting": "[12]", "result": "> 10", "unit": "µM"},
      {"measurement": "Ki", "setting": "[13]", "result": "> 10", "unit": "µM"},
      {"measurement": "Ki", "setting": "[14]", "result": "> 10", "unit": "µM"},
      {"measurement": "Ki", "setting": "[15]", "result": "> 10", "unit": "µM"},
      {"measurement": "Ki", "setting": "Interleukin-18", "result": "> 10", "unit": "µM"},
      {"measurement": "Ki", "setting": "Beta-nerve growth factor", "result": "> 10", "unit": "µM"},
      {"measurement": "Ki", "setting": "[16]", "result": "> 10", "unit": "µM"},
      {"measurement": "Ki", "setting": "[17]", "result": "> 10", "unit": "µM"},
      {"measurement": "Ki", "setting": "[18]", "result": "> 10", "unit": "µM"},
      {"measurement": "Ki", "setting": "Somatostatin", "result": "> 10", "unit": "µM"},
      {"measurement": "Ki", "setting": "Protachykinin-1", "result": "> 10", "unit": "µM"},
      {"measurement": "Ki", "setting": "VIP peptides", "result": "> 10", "unit": "µM"},
      {"measurement": "Ki", "setting": "[19]", "result": "> 10", "unit": "µM"}
    ]}
  ]
}
